Assay results as given in patent publication US9872840B2, “Effect of garcinol in delaying the progression of diabetic nephropathy” (Delhi Institute of Pharmaceutical Sciences and Research, priority 2013, dated 2018).

Assays:
STZ diabetic rats [1] = test: DNA fragmentation assay (TUNEL) for apoptosis in kidney; assay type: in vivo, rat; conditions: for Apoptosis: kidney of STZ diabetic rats, 8 weeks, garcinol 200 mg/kg, olmesartan 6 mg/kg, glimepiride 1 mg/kg
Experimental: For detection and localization of apoptosis in kidney, the technique of terminal deoxynucleotidyl transferase-mediated dUTP nick end labeling (TUNEL) (Apo-BrdU-IHC™ In Situ DNA Fragmentation Assay Kit, Biovison, USA) were employed. Briefly, sections were deparaffinized, hydrated, and digested with proteinase K (20 μg/ml), and then added biotinylated dUTP to the 3′ end of DNA fragments by incubating sections in 0.05 mol/l Tris-HCl buffer (pH 7.6) with 0.03 U/μl TdT and 0.04 nmol/μl biotin-11-dUTP at 37° C. for 1 h. The sections were rinsed in PBS. Endogenous peroxidase was blocked with 0.3% H2O2 in distilled H2O. The sections were rinsed with PBS and covers with 2% blocking solution in 0.1 mol/l sodium maleate to reduce background staining. The sections were then incubated with avidin-peroxidase complexes in PBS (1:50) for 30 min and rinsed with PBS (3×5 min). Peroxidase activity was visualized with 3,3′-diaminobenzidine until the brown product was clearly visible. The sections were then counterstained with methyl green. The positive apoptotic cells were the cells with brown nucleus 2.10.

STZ diabetic rats [2] = test: Renal function and biochemical parameters in plasma/serum of STZ diabetic rats; assay type: in vivo, rat; conditions: 8 weeks, garcinol 200 mg/kg, olmesartan 6 mg/kg, glimepiride 1 mg/kg
Experimental: (§1) The Garcinol used for the experimental studies was bought from Sami Labs, Hyderabad. It was administered at the dose of 200 mg/kg dispersed in water with 1% CMC. Further, the experimental procedures were conducted according to the Institutional Animal Ethical Committee (protocol no. DIPSAR/IAEC/2009/01) and CPCSEA guidelines. All rats were housed under conventional conditions with controlled temperature, humidity and light (12 hours light-dark cycle), and were provided with a standard commercial diet and water (ad libitum). Healthy albino rats of Wistar strain were kept for breeding. Diabetes was induced by administration of streptozotocin (STZ, 90 mg/kg, i.p.) to a group of 2 day old pups. Age-matched control rats were given an equal volume of vehicle and considered as ‘Normal’ group of rats. Six weeks after injection, the blood glucose level was measured from the tail vein. Rats with a fasting blood glucose level over 160 mg/dl were considered as diabetic.
(§2) After 6 weeks, four groups of animals, each comprising of 8 animals were made. The groups were assigned to receive vehicle or garcinol (200 mg/kg dispersed in 1% CMC); Olmesartan (6 mg/kg/day) and Glimepiride (1 mg/kg/day) once daily for 8 weeks. After the final drug administration, body weight was measured and blood samples were collected in both fasting and post prandial conditions. The kidney of treated and untreated animals were isolated and fixed in 10% buffered formalin solution to prepare paraffin sections.
Biochemical estimation for glucose, insulin, albumin and total proteins; glomerular proteins (viz β-2 microglobulin, serum cystatin c and serum creatinine) for the determination of GFR; inflammatory cytokines and growth factors like Tumor necrosis factor (TNF-α), Nitric Oxide (NO), Transforming growth factor (TGF-β1) and Vascular endothelial growth factor (VEGF) and kidney specific molecular markers involving adiponectin and erythropoietin were made in plasma/serum.

rat nephrin = test: Immunohistochemistry for nephrin in kidney; assay type: in vivo; conditions: kidney of STZ diabetic rats, 8 weeks; garcinol 200 mg/kg, olmesartan 6 mg/kg, glimepiride 1 mg/kg
Experimental: Immunohistochemistry was done as previously described according to a modified method using a Polyclonal (C-Terminus) Antibody which is identical to rat nephrin. These experiments were done using 4 micron […] kidney sections, as previously reported. Paraffin-embedded tissues sections were deparaffinized in microwave oven for 3 minutes. The sections were rehydrated in graded series of xylene and alcohols. Endogenous peroxidase activity was blocked by 3% hydrogen peroxide in distilled water for 15 minutes. Antigen retrieval was achieved by steam heating in a solution of citrate buffer, pH 6.0 for 30 minutes. Sections were blocked with 10% normal goat serum for polyclonal antibodies. Sections were then incubated for one hour with primary antibody Polyclonal (C-Terminus) Antibody which is identical to rat nephrin. The sections were then incubated in avidin-biotin complex at 1:25 dilution for 30 min at room temperature and developed using diaminobenzidine (DAB) as chromogen. After washing, the sections were counter-stained with hematoxylin and coverslipped. Negative controls were carried out by incubation in the absence of the primary antibody. The quantification of nephrin was done using point counting technique for each animal as described in established method. Davis B J, Johnston C I, Burrell, L M, Burns W C, Kubota E, Cao Z, Cooper M E, Allen T J. Renoprotective effects of vasopeptidase inhibition in an experimental model of diabetic nephropathy. Diabetologia. 2003; 46(7): 961-71.

STZ diabetic rats [3] = test: Homeostatic model assessment (HOMA-Index, β-cell function) in STZ diabetic rats; assay type: in vivo, rat; conditions: STZ diabetic rats after treatment; mean ± S.E.M., five animals
From the text: The homeostatic model assessment (HOMA) is a method used to quantify insulin resistance and beta-cell function (Homeostasis model assessment: insulin resistance and beta-cell function from fasting plasma glucose and insulin concentrations in man. Diabetologia 28: 412-9.). The approximating equation for insulin resistance, in the early model, used a fasting plasma sample, and was derived by use of the insulin-glucose product, divided by a constant. HOMA-IR=(Glucose×Insulin)/405;HOMA-% B=([…])/(Glucose-63)
Where IR is insulin resistance and % B is the β-cell function where Glucose is given in mg/dl and Insulin is given in μU/mL (both during fasting). Garcinol inhibited insulin resistance assessed by HOMA-Index with significance when compared with the diabetic group.

STZ diabetic rats [4] = test: Kidney histopathology, glomerulosclerotic index (periodic acid-Schiff); assay type: in vivo, rat; conditions: 8 weeks; for GSI (glomerulosclerotic index): kidney of STZ diabetic rats, sclerosis graded 0 to 4, garcinol 200 mg/kg, olmesartan 6 mg/kg, glimepiride 1 mg/kg
From the text: (§3) Kidney sections were stained with periodic acid-Schiff's reagent and Masson's modified trichrome to assess glomerulosclerosis and collagenous tubulointerstitial matrix, respectively.
In 4 μm kidney sections stained with periodic acid-Schiff's reagent, 150 glomeruli from each animal were examined. The extent of sclerosis in each glomerulus was subjectively graded on a scale of 0 to 4, with the following grades: grade 0 normal, grade 1 sclerotic area <25% (minimal), grade 2 sclerotic area 25-50% (moderate), grade 3 sclerotic area 50-75% (moderate to severe) and grade 4 sclerotic area 75-100% (severe). A glomerulosclerotic index was then calculated using the formula: […]
Where GSI is glomerulosclerotic index, Fi is the % of glomeruli in the rat with a given score (i).

STZ diabetic rats [5] = test: Fasting and post prandial blood glucose in STZ diabetic rats; assay type: in vivo, rat; design: Reduction of post prandial glucose: concentration or dose not given beside the values; conditions: for Reduction of fasting blood glucose / Reduction of post prandial glucose: 8 weeks treatment; for Reduction of post prandial glucose: compared to diabetic group; for Blood glucose, fasting, before treatment / Blood glucose, post prandial, before treatment: baseline before treatment; for Blood glucose, fasting, before treatment / Blood glucose, post prandial, before treatment / Blood glucose, fasting, after treatment / Blood glucose, post prandial, after treatment: mean ± S.E.M., eight animals; for Blood glucose, fasting, after treatment / Blood glucose, post prandial, after treatment: once daily for 8 weeks, garcinol 200 mg/kg, olmesartan 6 mg/kg/day, glimepiride 1 mg/kg/day
Experimental: as §1, §2
However, the decrease was less than antidiabetic reference glimepiride treatment (˜27%). Moreover, the reduction of post prandial glucose with garcinol treatment (˜36%) was more than olmesartan (˜10%) but was lower than observed with glimepiride treatment (almost 43%) when compared to diabetic group.

STZ diabetic rats [6] = test: Hemodynamic parameters by tail cuff apparatus; assay type: in vivo, rat
Experimental: Hemodynamic parameters were measured using tail cuff apparatus (Non-invasive measurement of Blood Pressure-Kent Scientific, USA). Garcinol was also observed to improve the systolic, diastolic and mean Blood Pressure.

STZ diabetic rats [7] = test: Tubulointerstitial matrix index (Masson's trichrome); assay type: in vivo, rat; conditions: kidney of STZ diabetic rats, 8 weeks; semi-quantified; garcinol 200 mg/kg, olmesartan 6 mg/kg, glimepiride 1 mg/kg
Experimental: as §3
The accumulation of matrix within the tubulointerstitial was assessed on Masson's trichrome stained sections. Blue area on a trichrome-stained section was selected for its color range and the proportional area of tissue with this range of color was then semi-quantified as tubulointerstitial matrix index (TIMI).

[8] = kidney of diabetic rats, FIG. 4

C=C(C)[C@@H](CC=C(C)C)C[C@@]12C[C@@H](CC=C(C)C)C(C)(C)[C@@](CC=C(C)C)(C(=O)C(C(=O)c3ccc(O)c(O)c3)=C1O)C2=O [Garcinol]
Apoptosis (STZ diabetic rats [1]): 20 % FA | Adiponectin (STZ diabetic rats [2]): 3.297 ± 0.56 µg/mL | Beta-2 microglobulin (GFR) (STZ diabetic rats [2]): 0.3488 ± 0.12 µg/mL | Erythropoietin (STZ diabetic rats [2]): 0.3508 ± 0.029 mlU/ml | Nitric Oxide (STZ diabetic rats [2]): 0.32 ± 0.026 nmol/µL | Plasma Insulin (STZ diabetic rats [2]): 12.13 ± 1.17 ng/mL | Serum Creatinine (GFR) (STZ diabetic rats [2]): 1.804 ± 0.36 mg/dL | Serum CystatinC (GFR) (STZ diabetic rats [2]): 0.4098 ± 0.028 ng/mL | TGF-β (STZ diabetic rats [2]): 3.908 ± 0.82 pg/mL | TNF-α (STZ diabetic rats [2]): 0.04059 ± 0.0092 pg/mL | Total Proteins (STZ diabetic rats [2]): 2.05 ± 0.14 mg/mL | VEGF (STZ diabetic rats [2]): 57.21 ± 3.89 pg/mL | Nephrin (rat nephrin): 50 % FA | % BETA-CELL FUNCTION (STZ diabetic rats [3]): 31.4 ± 3.17 | HOMA-INDEX (STZ diabetic rats [3]): 1.55 ± 0.0827 | GSI (glomerulosclerotic index) (STZ diabetic rats [4]): 1.4 | Reduction of fasting blood glucose (STZ diabetic rats [5]): ~18% | Reduction of post prandial glucose (STZ diabetic rats [5]): ~36% | Blood glucose, fasting, before treatment (STZ diabetic rats [5]): 166.2 ± 4.9 mg/dL | Blood glucose, post prandial, before treatment (STZ diabetic rats [5]): 287 ± 24.7 mg/dL | Blood glucose, fasting, after treatment (STZ diabetic rats [5]): 136.2 ± 5.86 mg/dL | Blood glucose, post prandial, after treatment (STZ diabetic rats [5]): 190 ± 5.27 mg/dL | Diastolic blood pressure, after Garcinol administration (STZ diabetic rats [6]; after Garcinol administration): 112 | Mean blood pressure, after Garcinol administration (STZ diabetic rats [6]; after Garcinol administration): 125 | Systolic blood pressure, after Garcinol administration (STZ diabetic rats [6]; after Garcinol administration): 153 | Diastolic blood pressure, before treatment (STZ diabetic rats [6]; before treatment): 127 | Mean blood pressure, before treatment (STZ diabetic rats [6]; before treatment): 139 | Systolic blood pressure, before treatment (STZ diabetic rats [6]; before treatment): 165 | TIMI (tubulointerstitial matrix index) (STZ diabetic rats [7]): 2

CCCc1nc(C(C)(C)O)c(C(=O)OCc2oc(=O)oc2C)n1Cc1ccc(-c2ccccc2-c2nnn[nH]2)cc1 [Olmesartan, olmesartan medoxomil]
Apoptosis (STZ diabetic rats [1]): 40 % FA | DNA fragmentation / apoptosis in kidney (qualitative) (STZ diabetic rats [1]; [8]): decrease in the DNA fragmentation was clearly observed qualitatively | Adiponectin (STZ diabetic rats [2]): 0.93 ± 0.18 µg/mL | Beta-2 microglobulin (GFR) (STZ diabetic rats [2]): 0.6529 ± 0.21 µg/mL | Erythropoietin (STZ diabetic rats [2]): 0.2657 ± 0.047 mlU/ml | Nitric Oxide (STZ diabetic rats [2]): 0.34 ± 0.097 nmol/µL | Plasma Insulin (STZ diabetic rats [2]): 12.74 ± 1.48 ng/mL | Serum Creatinine (GFR) (STZ diabetic rats [2]): 2.063 ± 0.41 mg/dL | Serum CystatinC (GFR) (STZ diabetic rats [2]): 0.4617 ± 0.048 ng/mL | TGF-β (STZ diabetic rats [2]): 5.963 ± 0.896 pg/mL | TNF-α (STZ diabetic rats [2]): 0.05665 ± 0.013 pg/mL | Total Proteins (STZ diabetic rats [2]): 2.123 ± 0.11 mg/mL | VEGF (STZ diabetic rats [2]): 66.3 ± 1.14 pg/mL | Nephrin (rat nephrin): 62.5 % FA | % BETA-CELL FUNCTION (STZ diabetic rats [3]): 21.7 ± 1.98 | HOMA-INDEX (STZ diabetic rats [3]): 1.7 ± 0.095 | GSI (glomerulosclerotic index) (STZ diabetic rats [4]): 1.4 | Histopathological changes in kidney (qualitative) (STZ diabetic rats [4]; [8]): improvement in tubular injury was visible | Reduction of fasting blood glucose (STZ diabetic rats [5]): 14% | Reduction of post prandial glucose (STZ diabetic rats [5]): ~10% | Blood glucose, fasting, before treatment (STZ diabetic rats [5]): 162.7 ± 4.34 mg/dL | Blood glucose, post prandial, before treatment (STZ diabetic rats [5]): 288 ± 6.82 mg/dL | Blood glucose, fasting, after treatment (STZ diabetic rats [5]): 139.7 ± 5.05 mg/dL | Blood glucose, post prandial, after treatment (STZ diabetic rats [5]): 259 ± 7.16 mg/dL | TIMI (tubulointerstitial matrix index) (STZ diabetic rats [7]): 1
